In patent US12251370B2, “Small molecule inhibitors of the BfrB:Bfd interaction” (BOARD OF SUPERVISORS OF LOUISIANA STATE UNIVERSITY AND …, priority 2018, dated 2025):

Legend:
A. baumannii = experiment: Growth curves and IC50 determination in A. baumannii; type: cell-based, Acinetobacter baumannii (AB5075); details: Acinetobacter baumannii; AB5075; modified M63 media; 48 well-plates
Procedure: (§1) Pre-cultures (5 mL LB media) were grown for 12 h at 37° C. and 220 rpm in 50 mL conical tubes (VWR International, PA) covered with an air permeable membrane. The cells were then centrifuged at 4,000 rpm for 10 min, the resultant cell pellets washed twice in M63 media and then diluted in M63 media to OD600=0.01. Stock solutions (100 mM) of analog in DMSO were prepared weekly and stored at 4° C. Prior to initiating experiments in 96 well plates, the analog stock solution was serially diluted to make 10 mM or 1 mM working solutions in DMSO. A small volume of the appropriate working solution was transferred to a glass vial, diluted with DMSO to 30 μL, and then diluted to a final volume of 1.5 mL with pre-culture cell suspension with an OD600=0.01. The resultant cell suspension (200 μL) was transferred to a clear-bottom polystyrene 96 well plate (VWR), and incubated at 35° C. and 205 cpm for 13 h in an Epoch 2 microplate spectrophotometer (Biotek Instruments, Inc., Vermont). The growth curve in the presence of Ciprofloxacin was obtained in the same plate. […] MIC determinations were carried out using standard broth microdilution methods in 48 well plates and modified M63 media. Cells were incubated at 35° C.
This idea was tested with A. baumanni AB5075, a highly virulent isolate, which has been proposed as a model strain for the evaluation of pathogenesis and antimicrobial treatments.^66.

P. aeruginosa = experiment: Growth curves and IC50 determination in P. aeruginosa; type: cell-based, Pseudomonas aeruginosa (PAO1); details: Pseudomonas aeruginosa; M63 media; growth % from OD600 at 13 h; three independent experiments
Procedure: as §1

[1] = tested on: P. aeruginosa clinical isolate MR60; experiment: Effect of analog on ciprofloxacin potency, clinical isolate MR60; type: cell-based, Pseudomonas aeruginosa
Procedure: (§2) The combined treatment was carried out similarly, ensuring that the final concentration of DMSO was 2%.

P. aeruginosa PAO1 = experiment: Effect of analogs on the potency of fluoroquinolone antibiotics, strain PAO1; type: cell-based, Pseudomonas aeruginosa; details: PAO1
Procedure: as §2

O=C1NC(=O)c2c(NCCCc3cccc(O)c3)cccc21 [Analog 16, 4-((3-(3-Hydroxyphenyl)propyl)amino)isoindoline-1,3-dione]
IC50 (A. baumannii): 128 µM
IC50 (P. aeruginosa): 121 µM
survival, fold lower relative to ciprofloxacin alone ([1]; analog 16 + ciprofloxacin): approximately 4 fold
survival ([1]; analog 16 + ciprofloxacin 1 μg/mL): ca. 10%
survival ([1]; analog 16 only, 125 μM): ca. 40%
% survival, fold lower relative to ciprofloxacin alone (P. aeruginosa PAO1; analog 16 125 μM + ciprofloxacin 0.25 μg/mL): approximately 50 fold
cell survival, fold lower relative to fluoroquinolone alone (P. aeruginosa PAO1; analog 16 125 μM + levofloxacin 0.5 μg/mL): approximately 50 fold
cell survival, fold lower relative to fluoroquinolone alone (P. aeruginosa PAO1; analog 16 125 μM + norfloxacin 0.9 μg/mL): approximately 50 fold
survival relative to untreated control (P. aeruginosa PAO1; analog 16 only, 125 μM, 18 h): ~30%
